From ChEMBL document CHEMBL1122779, “Antiinflammatory agents. 3. Synthesis and pharmacological evaluation of 2-amino-3-benzoylphenylacetic acid and analogues” (J Med Chem, 1984)

Columns and labels:
Rattus norvegicus [1] = assay: Acute gastric toxicity (single oral dose) in male fasted rats; assay type: organism-based, Stomach; details: in vivo
Rattus norvegicus [2] = assay: Evaluated for chronic intestinal toxicity (multiple oral dose) in rats; assay type: organism-based; details: in vivo
Mus musculus [3] = assay: Oral analgesic activity was determined in mice by the acetylcholine-induced abdominal constriction assay upon ip administration of acetylcholine bromide 5 hours following oral administration; assay type: functional; details: Abdomen
Rattus norvegicus [4] = assay: Percent change in avg. volume of pleural fluid at a dose of 0.16 mg/kg and 5-h response is evaluated by Evans blue-carrageenan induced pleural effusion assay
Rattus norvegicus [5] = assay: Percent change in average volume of pleural fluid at a dose of 4.0 mg/kg and 5-h response by Evans blue-carrageenan induced pleural effusion assay.; assay type: functional
Rattus norvegicus [6] = species: Rattus norvegicus; assay: Evaluated for chronic potency in adjuvant arthritis assay; assay type: functional
Rattus norvegicus [7] = species: Rattus norvegicus; assay: Evaluated for acute potency in pleural effusion assay; assay type: functional
Mus musculus [8] = assay: Oral analgesic activity was determined in mice by the acetylcholine-induced abdominal constriction assay upon ip administration of acetylcholine bromide 20 min following oral administration; assay type: functional; details: Abdomen
[9] = Chronic therapeutic index as ratio of potency in adjuvant-induced arthritis assay to that of potency in intestinal toxicity assay; details: read-out: Chronic TI
[10] = Acute therapeutic index as ratio of potency in pleural effusion to that of potency in gastric toxicity assay; assay type: tissue-based; details: Stomach; read-out: Acute TI
Cyclooxygenase = molecular target: T1, Cyclooxygenase (Bos taurus, UniProt O62664+O62698)
T1 sequence (O62664 whole entry): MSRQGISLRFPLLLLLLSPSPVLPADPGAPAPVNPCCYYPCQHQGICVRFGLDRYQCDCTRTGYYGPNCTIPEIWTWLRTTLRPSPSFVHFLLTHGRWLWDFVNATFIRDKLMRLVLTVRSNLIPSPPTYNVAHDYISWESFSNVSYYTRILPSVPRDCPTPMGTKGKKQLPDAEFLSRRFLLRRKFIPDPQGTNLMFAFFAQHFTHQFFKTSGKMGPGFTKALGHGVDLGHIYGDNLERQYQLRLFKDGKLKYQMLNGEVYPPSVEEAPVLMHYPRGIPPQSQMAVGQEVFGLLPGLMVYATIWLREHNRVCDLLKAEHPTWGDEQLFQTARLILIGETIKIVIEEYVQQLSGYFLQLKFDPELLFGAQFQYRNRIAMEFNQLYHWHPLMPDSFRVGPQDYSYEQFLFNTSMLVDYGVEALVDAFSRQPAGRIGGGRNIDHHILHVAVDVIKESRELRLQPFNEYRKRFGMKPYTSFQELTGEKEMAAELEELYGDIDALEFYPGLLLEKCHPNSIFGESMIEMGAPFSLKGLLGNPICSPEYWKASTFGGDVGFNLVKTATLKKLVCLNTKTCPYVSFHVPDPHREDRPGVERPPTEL
T1 sequence (O62698 whole entry): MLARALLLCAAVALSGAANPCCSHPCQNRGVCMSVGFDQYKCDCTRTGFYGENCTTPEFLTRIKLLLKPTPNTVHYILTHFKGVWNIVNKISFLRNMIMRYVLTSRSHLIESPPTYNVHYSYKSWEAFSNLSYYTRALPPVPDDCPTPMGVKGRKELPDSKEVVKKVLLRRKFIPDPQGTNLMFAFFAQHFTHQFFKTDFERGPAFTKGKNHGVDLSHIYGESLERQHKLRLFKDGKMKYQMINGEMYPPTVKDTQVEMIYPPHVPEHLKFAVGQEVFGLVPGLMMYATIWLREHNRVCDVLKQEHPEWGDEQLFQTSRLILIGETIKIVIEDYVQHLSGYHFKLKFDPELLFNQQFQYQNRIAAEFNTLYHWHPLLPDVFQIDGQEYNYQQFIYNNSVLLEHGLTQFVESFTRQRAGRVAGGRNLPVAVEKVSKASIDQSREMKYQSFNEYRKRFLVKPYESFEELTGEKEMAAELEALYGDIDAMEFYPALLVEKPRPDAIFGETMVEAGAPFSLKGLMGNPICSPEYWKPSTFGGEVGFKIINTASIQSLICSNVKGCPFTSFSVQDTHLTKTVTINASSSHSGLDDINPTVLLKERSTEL
Description: Inhibition of prostaglandin G/H synthase obtained from bovine seminal vesicles.

Rattus norvegicus [11] = assay: Percent change in average volume of pleural fluid at a dose 4 mg/kg of indomethacin and 5-h response is evaluated by Evans blue-carrageenan induced pleural effusion assay; assay type: functional
Rattus norvegicus [12] = assay: Percent change in average volume of pleural fluid at a dose of 100 mg/kg and 5-h response by Evans blue-carrageenan induced pleural effusion assay.; assay type: functional

| SMILES | Gastric toxicity (Rattus norvegicus [1]) | Intestinal toxicity (Rattus norvegicus [2]) | ED50 (Mus musculus [3]) [mg/kg] | Change (Rattus norvegicus [4]) [%] | Change (Rattus norvegicus [5]) [%] | Potency (Rattus norvegicus [6]) | Potency (Rattus norvegicus [7]) | ED50 (Mus musculus [8]) [mg/kg] | selectivity ratio [9] | selectivity ratio [10] | IC50 (Cyclooxygenase) [nM] | Change (Rattus norvegicus [11]) [%] | Change (Rattus norvegicus [12]) [%] |
| --- | --- | --- | --- | --- | --- | --- | --- | --- | --- | --- | --- | --- | --- |
| COc1ccc2c(c1)c(CC(=O)O)c(C)n2C(=O)c1ccc(Cl)cc1 [INDOMETHACIN] | 1 | 1 | 0.22 | -7 | -33 | 1 | 1 | 0.22 | – | – | – | – | – |
| Cc1cc(CC(=O)O)n(C)c1C(=O)c1ccc(Cl)cc1 [ZOMEPIRAC] | 0.25 | 0.63 | 0.59 | – | – | 0.67 | 0.78 | 0.21 | 1.1 | 3.1 | 15000 | – | – |
| Nc1c(CC(=O)[O-])cc(F)cc1C(=O)c1ccc(Br)cc1.[Na+] | 1.7 | 1.9 | 0.29 | – | -28 | 2.2 | 8.4 | 0.18 | 1.2 | 4.9 | 40 | -25 | -28 |
| Nc1c(CC(=O)[O-])cc(Cl)cc1C(=O)c1ccc(I)cc1.[Na+] | 3.5 | 2.2 | 0.24 | – | -35 | 5.5 | 3.8 | 0.24 | 2.5 | 1.1 | 30 | -33 | -38 |
| Nc1c(CC(=O)[O-])cc(Cl)cc1C(=O)c1ccc(Br)cc1.[Na+] | 1.5 | 2.9 | 0.13 | – | -41 | 4.6 | 15 | 0.05 | 1.6 | 10 | 20 | -40 | -38 |
| Nc1c(CC(=O)[O-])cc(Cl)cc1C(=O)c1ccc(Cl)cc1.[Na+] | 1.2 | 1.2 | 0.31 | -18 | -41 | 1.7 | 4.6 | 0.23 | 1.4 | 3.8 | 300 | -32 | – |
| Cc1cc(CC(=O)[O-])c(N)c(C(=O)c2ccc(Cl)cc2)c1.[Na+] | 0.27 | 0.4 | 0.65 | 0 | -32 | 0.63 | 1.7 | 0.78 | – | – | 700 | -35 | -38 |
| Nc1c(CC(=O)[O-])cccc1C(=O)c1ccc(Cl)cc1Cl.[Na+] | 1 | 0.6 | > 0.3 | -16 | -37 | 4.2 | 5.3 | 0.21 | – | – | 600 | -33 | -41 |
| Nc1c(CC(=O)[O-])cc(F)cc1C(=O)c1ccc(Cl)cc1.[Na+] | 1.1 | 0.5 | 1.4 | -15 | -37 | 1.9 | 3.6 | 0.28 | – | – | 100 | -34 | – |
| Nc1c(CC(=O)[O-])cccc1C(=O)c1ccccc1.[Na+] [AMFENAC SODIUM] | 0.7 | 0.4 | > 3 | -13 | -26 | 1.1 | 0.7 | 0.11 | – | – | – | -33 | -35 |
